# Where “and” joins values, the source holds several entries; their conditions need not be identical. Identical values can stand only once.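 Results reflect a 48-hour exposure of cells in 96-well plates to compound at five concentrations. GI50 = concentration required for 50% inhibition of growth. At the TGI there is no net growth.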
# What was measured:
# Experiment in all cases: DTP human tumour cell line panel, 48 h
# CAKI-1 renal = tested on: CAKI-1 renal
# EKVX NSCLC = tested on: EKVX NSCLC
# HCC-2998 colon = tested on: HCC-2998 colon
# HS 578T breast = tested on: HS 578T breast
# IGROV1 ovarian = tested on: IGROV1 ovarian
# MDA-MB-435 = tested on: MDA-MB-435
# NCI-H226 lung = tested on: NCI-H226 lung
# OVCAR-4 ovarian = tested on: OVCAR-4 ovarian
# OVCAR-5 ovarian = tested on: OVCAR-5 ovarian
# PC-3 prostate = tested on: PC-3 prostate
# RPMI-8226 leukemia = tested on: RPMI-8226 leukemia
# RXF 393 renal = tested on: RXF 393 renal
# SF-268 CNS = tested on: SF-268 CNS
# SK-MEL-2 melanoma = tested on: SK-MEL-2 melanoma
# SK-MEL-28 melanoma = tested on: SK-MEL-28 melanoma
# SR leukemia = tested on: SR leukemia
Compound,TGI (CAKI-1 renal),TGI (EKVX NSCLC),TGI (HCC-2998 colon),TGI (HS 578T breast),TGI (IGROV1 ovarian),TGI (MDA-MB-435),TGI (NCI-H226 lung),TGI (OVCAR-4 ovarian),TGI (OVCAR-5 ovarian),TGI (PC-3 prostate),TGI (RPMI-8226 leukemia),TGI (RXF 393 renal),TGI (SF-268 CNS),TGI (SK-MEL-2 melanoma),TGI (SK-MEL-28 melanoma),TGI (SR leukemia),GI50 (CAKI-1 renal),GI50 (HS 578T breast)
COc1cc(OC)c(OC)cc1/C=N/N=C(\N)NO,> 100 µM,> 100 µM,> 100 µM,> 100 µM,> 100 µM,> 100 µM,> 100 µM,> 100 µM,> 100 µM,> 100 µM,> 100 µM,> 100 µM,> 100 µM,> 100 µM,> 100 µM,> 100 µM,–,–
CCCCCC/C=C\CCCCCCCCCc1cccc(O)c1C(=O)O,> 100 µM,> 100 µM,> 100 µM,> 100 µM,> 100 µM,> 100 µM,> 100 µM,> 100 µM,> 100 µM,> 100 µM,> 100 µM,> 100 µM,> 100 µM,95.8 µM,> 100 µM,> 100 µM,–,–
COC(=O)c1c2n(c3ccccc13)C[C@H]1OC(C)(C)O[C@@H]21,> 100 µM,> 100 µM,> 100 µM,> 100 µM,> 100 µM,> 100 µM,> 100 µM,> 100 µM,> 100 µM,> 100 µM,> 100 µM,> 100 µM,> 100 µM,> 100 µM,> 100 µM,> 100 µM,–,–
O=C(N=S(NC(=O)c1ccccc1)C(Cl)(Cl)Cl)c1ccccc1 (configuration not stated),54.9 µM,39.2 µM,> 57.3 µM,99.5 µM,> 49 µM,47.4 µM,> 58.6 µM,38 µM,50.7 µM,> 100 µM,> 100 µM,18 µM,> 100 µM,70.1 µM,66.7 µM,> 73.4 µM,–,–
COc1nc(N)c(NC2OC(CO)C(O)C2O)c(=O)[nH]1 (configuration not stated),> 100 µM,> 100 µM,> 100 µM,> 100 µM,> 100 µM,> 100 µM,> 100 µM,> 100 µM,> 100 µM,> 100 µM,> 100 µM,> 100 µM,> 100 µM,> 100 µM,> 100 µM,> 100 µM,–,–
C1=NCCNCCN=Cc2ccc(cc2)OCc2cccc(n2)COc2ccc1cc2,> 100 µM,> 100 µM,–,> 100 µM,> 100 µM,> 100 µM,> 100 µM,> 100 µM,> 100 µM,> 100 µM,> 100 µM,> 100 µM,83.9 µM,> 100 µM,> 100 µM,> 100 µM,–,–
CCCN(C(=O)c1c(Cl)nnc(Cl)c1C(=O)c1cc(Cl)nnc1Cl)c1cc(Cl)nnc1Cl,22.3 µM,27.3 µM,32.3 µM,14.9 µM,21.2 µM,37 µM,57.3 µM,38.1 µM,41.2 µM,22.2 µM,17.1 µM,8.49 µM,20.2 µM,33.3 µM,28.1 µM,20.3 µM,–,–
COc1ccccc1NC(=O)/C(Cc1nc2ccc([N+](=O)[O-])cc2[nH]c1=O)=N\NC(=O)C[N+](C)(C)C,> 100 µM,> 100 µM,> 100 µM,> 100 µM,> 100 µM,> 100 µM,> 100 µM,> 100 µM,> 100 µM,> 100 µM,–,> 100 µM,> 100 µM,> 100 µM,> 100 µM,6.47 µM,–,–
COC(=O)C1C(OC(=O)c2ccccc2)CC2CCC1N2C(N)=O (configuration not stated),> 100 µM,> 100 µM,> 100 µM,> 100 µM,> 100 µM,> 100 µM,> 100 µM,> 100 µM,> 100 µM,> 100 µM,> 100 µM,–,> 100 µM,> 100 µM,> 100 µM,> 100 µM,–,–
COC(=O)C1=CSC2(S1)C(C(=O)OC)=CSc1c2ssc1=Nc1ccccc1 (configuration not stated),32.9 µM,> 100 µM,4.25 µM,8.34 µM,4.83 µM,5.09 µM,–,8.06 µM,17.7 µM,> 100 µM,2.87 µM,6.12 µM,> 100 µM,7.36 µM,5.76 µM,3.56 µM,–,–
COc1ccc(NC2Oc3cc4c(cc3C(c3cccc(OC)c3OC)C2C)OCO4)cc1 (configuration not stated),> 100 µM,> 100 µM,> 100 µM,61.5 µM,> 100 µM,43.1 µM,> 100 µM,–,> 100 µM,51.3 µM,> 100 µM,50.2 µM,> 100 µM,70.2 µM,85.7 µM,12 µM,–,–
Cc1c(/C=N/NC(=S)Nc2ccccc2Cl)c(=O)n(-c2ccccc2)n1C,81.3 µM,> 100 µM,–,85.3 µM,> 100 µM,> 100 µM,> 100 µM,> 100 µM,> 100 µM,> 100 µM,> 100 µM,47.9 µM,> 100 µM,> 100 µM,> 100 µM,> 100 µM,–,–
CC1(CCC2C=CCC2)CCCNC1=S (configuration not stated),–,> 10 µM,> 10 µM,> 10 µM,> 10 µM,> 10 µM,> 10 µM,–,> 10 µM,> 10 µM,> 10 µM,> 10 µM,> 10 µM,> 10 µM,> 10 µM,> 10 µM,–,–
CC1C(c2ccccc2)OP(=O)(OC(C#N)c2ccccc2)N1C (configuration not stated),> 100 µM,> 100 µM,> 100 µM,> 100 µM,> 100 µM,> 100 µM,–,–,> 100 µM,> 100 µM,> 100 µM,> 100 µM,> 100 µM,> 100 µM,> 100 µM,> 100 µM,–,–
C#CCOCC12C=CC(O1)C1C(=O)N(C)C(=O)C12 (configuration not stated),> 100 µM,> 100 µM,> 100 µM,> 100 µM,> 100 µM,> 100 µM,> 100 µM,> 100 µM,> 100 µM,> 100 µM,> 100 µM,> 100 µM,> 100 µM,–,> 100 µM,> 100 µM,> 100 µM,> 100 µM and 20 µM
O=[N+]([O-])/C=C1\COCc2cc3c(cc21)OCO3,25.7 µM,74.7 µM,32.9 µM,80.7 µM,> 100 µM,28.2 µM,57.6 µM,–,43.4 µM,25.6 µM,68.5 µM,38.9 µM,67 µM,–,34.2 µM,61.4 µM,–,–
Cc1n[nH]c(=O)c2cc(-c3ccccc3)[nH]c12,> 100 µM,> 100 µM,> 100 µM,> 100 µM,> 100 µM,> 100 µM,> 100 µM,> 100 µM,> 100 µM,96.6 µM,> 100 µM,> 100 µM,> 100 µM,91.1 µM,–,> 100 µM,–,–
O=c1oc2ccccc2cc1/C=N/N1C(=S)N(c2ccccc2)C(=Nc2ccccc2)C1=Nc1ccccc1,> 100 µM,> 100 µM,> 100 µM,> 100 µM,> 100 µM,> 100 µM,> 100 µM,–,> 100 µM,> 100 µM,> 100 µM,> 100 µM,> 100 µM,> 100 µM,> 100 µM,> 100 µM,–,–
Cc1ccc(-c2nc3ccc(Cl)cc3[nH]2)cc1,> 100 µM,> 100 µM,> 100 µM,> 100 µM,> 100 µM,> 100 µM,> 100 µM,> 100 µM,–,> 100 µM,> 100 µM,> 100 µM,> 100 µM,> 100 µM,> 100 µM,> 100 µM,–,–
CC1(C)CS(=O)(=O)CC(C)(C)C(=N/N)/C1=N\N,> 100 µM,> 100 µM,> 100 µM,> 100 µM,> 100 µM,> 100 µM,–,> 100 µM,> 100 µM,> 100 µM,–,–,> 100 µM,> 100 µM,> 100 µM,> 100 µM,–,–
Fc1ccc2nc3n(c2c1)C(c1c(F)cccc1F)SC3 (configuration not stated),> 100 µM,–,> 100 µM,> 100 µM,> 100 µM,> 100 µM,> 100 µM,> 100 µM,> 100 µM,> 100 µM,> 100 µM,> 100 µM,> 100 µM,> 100 µM,> 100 µM,76.2 µM,–,–
CN(C)c1ccc(N=Nc2ccc3nc[nH]c3c2)cc1,> 100 µM,> 100 µM,–,74.2 µM,> 100 µM,47.7 µM,82.1 µM,68.5 µM,70.4 µM,> 100 µM,59.2 µM,88.7 µM,54 µM,> 100 µM,25.6 µM,87.5 µM,–,–
COc1ccc(NC(=O)CC(=O)N2N=C(C)C(N=Nc3ccc(S(=O)(=O)c4ccc(N=NC5C(=O)N(C(=O)CC(=O)Nc6ccc(OC)cc6)N=C5C)cc4)cc3)C2=O)cc1 (configuration not stated),> 100 µM,> 100 µM,> 100 µM,> 100 µM,> 100 µM,> 100 µM,> 100 µM,> 100 µM,–,> 100 µM,> 100 µM,> 100 µM,> 100 µM,> 100 µM,> 100 µM,> 100 µM,–,–
COCn1c2ccc(OC(C)=O)cc2c2c(=O)oc(N(C)C)nc21,> 100 µM,> 100 µM,> 100 µM,> 100 µM,> 100 µM,> 100 µM,> 100 µM,> 100 µM,> 100 µM,> 100 µM,> 100 µM,> 100 µM,–,> 100 µM,> 100 µM,> 100 µM,–,–
CSc1nc(N)c(NC2OC(CO)C(O)C2O)c(=O)[nH]1 (configuration not stated),> 100 µM,> 100 µM,–,> 100 µM,> 100 µM,> 100 µM,> 100 µM,> 100 µM,> 100 µM,> 100 µM,> 100 µM,> 100 µM,> 100 µM,> 100 µM,> 100 µM,> 100 µM,–,–
O=C(NNC1=NCCN1)c1ccco1,–,> 100 µM,> 100 µM,> 100 µM,> 100 µM,> 100 µM,> 100 µM,> 100 µM,> 100 µM,> 100 µM,> 100 µM,> 100 µM,> 100 µM,> 100 µM,> 100 µM,> 100 µM,–,–
COc1cc(/C=C2/CCS(=O)(=O)c3ccc(C)cc3C2=O)cc(OC)c1OC,> 40.8 µM,30.2 µM,> 35.7 µM,> 35.9 µM,> 39.4 µM,> 27.2 µM,45.9 µM,> 100 µM,25.4 µM,> 100 µM,6.6 µM,–,> 49.2 µM,99.2 µM,> 37.4 µM,7.13 µM,–,–
COc1ccc(-c2c(N)n(-c3nc4ccccc4s3)c(=O)c3cc([N+](=O)[O-])ccc23)cc1,48.5 µM,44.6 µM,–,37.3 µM,–,> 100 µM,> 100 µM,68.4 µM,56.7 µM,> 100 µM,> 100 µM,30.9 µM,56.6 µM,> 100 µM,> 100 µM,> 100 µM,–,–
O=C1C2CC=CCC2C(=O)N1n1c(-c2ccccc2)n[nH]c1=O (configuration not stated),> 100 µM,> 100 µM,> 100 µM,> 100 µM,> 100 µM,> 100 µM,> 100 µM,> 100 µM,> 100 µM,> 100 µM,> 100 µM,> 100 µM,> 100 µM,> 100 µM,–,> 100 µM,–,–
C=CCOC(=O)/C(=C\c1ccc(OC)c(OC)c1)c1ccc(OC)c(OC)c1,> 100 µM,> 100 µM,> 100 µM,> 100 µM,> 100 µM,> 100 µM,> 100 µM,–,> 100 µM,> 100 µM,47.6 µM,99.5 µM,> 100 µM,> 100 µM,> 100 µM,72.3 µM,–,–

# Source: PubChem BioAssay (NCI)
